In PMC3791872 (Bioscience Reports, 2013):
Like-named read-outs stand apart in the source and are kept apart here.

Experiments:
[1] = target: SV40 large TAg (T-antigen) (Simian virus 40, UniProt P03070); assay: biochemical; set-up: species or system SV40 (simian virus 40); details: DNA unwinding
[2] = tested on: S. cerevisiae ∆erg6 mcm4chaos3 (UPY1056); assay: Yeast growth inhibition, 96-well assay, ∆erg6 mcm4chaos3 strain; format: cell-based; details: Saccharomyces cerevisiae; growth over 24 h
[3] = tested on: T1, Mcm2-7; assay: Steady-state ATP hydrolysis by Mcm2-7; format: biochemical, Saccharomyces cerevisiae; details: 1 mM compound, 100 nM hexamer
T1 construct: made in house; host or cells: baculovirus-infected insect cells

[4] = tested on: T1, Mcm2-7; assay: ssDNA double filter-binding assay, Mcm2-7; set-up: species or system Saccharomyces cerevisiae; details: 1 mM compound, 150 nM helicase
[5] = target: T2, SV40 large TAg (Simian virus 40, UniProt P03070); assay: ssDNA double filter-binding assay, TAg; set-up: species or system SV40 (simian virus 40); details: 1 mM compound, 150 nM helicase
T2 construct: made in house
T2 sequence (P03070 whole entry): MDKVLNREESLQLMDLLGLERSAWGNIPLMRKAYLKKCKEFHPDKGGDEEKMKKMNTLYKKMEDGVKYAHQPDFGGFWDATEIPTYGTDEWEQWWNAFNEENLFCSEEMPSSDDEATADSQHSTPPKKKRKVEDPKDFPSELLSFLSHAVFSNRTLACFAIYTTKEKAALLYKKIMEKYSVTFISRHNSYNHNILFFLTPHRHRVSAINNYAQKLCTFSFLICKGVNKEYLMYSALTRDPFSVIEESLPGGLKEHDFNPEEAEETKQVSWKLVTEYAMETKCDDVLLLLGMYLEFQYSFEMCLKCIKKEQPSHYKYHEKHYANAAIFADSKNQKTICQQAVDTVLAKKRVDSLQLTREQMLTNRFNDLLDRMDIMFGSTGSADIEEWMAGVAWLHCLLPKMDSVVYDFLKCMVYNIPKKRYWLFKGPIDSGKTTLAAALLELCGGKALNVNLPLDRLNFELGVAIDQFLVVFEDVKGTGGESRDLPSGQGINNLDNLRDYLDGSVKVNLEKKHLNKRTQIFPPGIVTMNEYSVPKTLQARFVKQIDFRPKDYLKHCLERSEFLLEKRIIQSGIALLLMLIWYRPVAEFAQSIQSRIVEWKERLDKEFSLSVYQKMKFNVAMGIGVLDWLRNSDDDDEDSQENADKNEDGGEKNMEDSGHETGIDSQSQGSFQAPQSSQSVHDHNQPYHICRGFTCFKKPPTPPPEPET

[6] = tested on: pUC19; assay: DNA intercalation assay (Topo I-relaxed plasmid); format: biochemical; details: 1 mM inhibitor added after plasmid relaxation (Figure 3C)
From the text: To examine this model, we tested our inhibitors in a standard topoisomerase assay. The rationale of this assay is that intercalating compounds will introduce supercoils into a fully relaxed plasmid. Topo I will remove these introduced supercoils, but after quenching and gel electrophoresis the intercalator will diffuse away and produce a detectable compensatory supercoiling increase.

[7] = target: DnaB (Escherichia coli, UniProt P0ACB0); assay: DnaB helicase assay; format: biochemical; details: 1 mM, Figure S3
DnaB, sequence (P0ACB0 whole entry, the tested form may be a part): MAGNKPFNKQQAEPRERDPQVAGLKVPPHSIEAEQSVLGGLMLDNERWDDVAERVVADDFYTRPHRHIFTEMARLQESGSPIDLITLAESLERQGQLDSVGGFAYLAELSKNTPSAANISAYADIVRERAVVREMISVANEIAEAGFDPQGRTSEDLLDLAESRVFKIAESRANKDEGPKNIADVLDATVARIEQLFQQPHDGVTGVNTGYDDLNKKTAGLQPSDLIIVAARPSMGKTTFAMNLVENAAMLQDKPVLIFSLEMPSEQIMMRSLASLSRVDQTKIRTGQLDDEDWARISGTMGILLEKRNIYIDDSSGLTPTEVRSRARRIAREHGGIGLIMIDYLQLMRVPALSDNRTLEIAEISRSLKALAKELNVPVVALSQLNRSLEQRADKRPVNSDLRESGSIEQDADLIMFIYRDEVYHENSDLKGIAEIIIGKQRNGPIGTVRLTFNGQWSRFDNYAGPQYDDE
Description: Helicase assays were performed essentially as described. Synthetic replication forks were prepared by annealing oligos 233 and 235 [IDT (Coralville), oligo 233 5′(T)40[…]; oligo 235 5′ […](T)40] and then filling in the recessed 3′-end with [α32P]dATP and unlabelled dNTPs using Klenow Fragment. Briefly, reactions ([…]) were performed in 1× helicase assay buffer [20 mM Tris/HCl (pH 7.5), 10 mM MgOAc, 20% (v/v) glycerol, 100 μM EDTA and 5 mM DTT (dithiothreitol)] and contained a final concentration of 1 nM fork substrate, 5 mM ATP, 40 mM creatine phosphate, […] creatine kinase, 33 μg/ml BSA. Reactions containing Mcm2-7 and Mcm467 were supplemented with 200 mM potassium glutamate. Reactions containing SsoMcm were incubated at 65°C, those containing T4 gp41 were incubated for 30 min at 37°C, and all other reactions were incubated at 37°C for 1 h. The products were separated by 10% (w/v) native PAGE, the resulting gels dried and the radioactivity quantified using a Fuji FLA-5100 phosphoimager. Irrespective of the protein used, all helicase assays contained equal molar helicase concentrations (100 nM, assuming in all cases that the active helicase form is hexameric). Steady-state ATP hydrolysis was assayed as published. In short, reactions were set up essentially as in the helicase assay, with minor exceptions. A non-radiolabelled DNA fork was used, helicase concentration was 100 nM (hexamer) the total ATP concentration was 500 μM and included ~0.5 μCi of [α32P]ATP, and the ATP regeneration system was omitted. Reactions were incubated for 1 h at 37°C and stopped by the addition of SDS. ATP was separated from ADP by PEI (polyethyleneimine) thin layer chromatography, and the ratio of ATP:ADP was quantified using a Fuji FLA-5100 phosphoimager. Based on our prior work, conditions were established to ensure that the results shown are within the linear range of the assay. Protein–ssDNA binding was determined with a double filter-binding assay using an ssDNA probe (oligo 826, 5′[…]) that was 5′-radiolabelled using T4 polynucleotide kinase and [γ32P]ATP [16]. For the double filter-binding assay, the helicase concentration was 150 nM (hexamer) and the ssDNA concentration was 4 nM. For all biochemical assays, helicases were preincubated with inhibitors for 20 min at 37°C unless otherwise indicated. […]
against different helicases
Representative helicase activity assays in the presence of the indicated inhibitor were tested, quantiﬁed and standardized as described in the legend to F igures 2 (A) and (B). All helicases were assayed at 100 nM
ﬁnal concentration (hexamer) with inhibitor preincubation prior to ATP […]
F igure S3 Ciproﬂoxacin poor ly inhibits hexameric helicases un- […]
All inhibitors were used at 1 mM ﬁnal concentration. […]

[8] = target: T3, SsoMcm (Sulfolobus solfataricus Mcm protein) complex (Saccharolobus solfataricus, UniProt Q9UXG1); assay: SsoMcm helicase assay; format: biochemical; details: 1 mM, 65°C, Figure S3
T3 sequence (Q9UXG1 1-686): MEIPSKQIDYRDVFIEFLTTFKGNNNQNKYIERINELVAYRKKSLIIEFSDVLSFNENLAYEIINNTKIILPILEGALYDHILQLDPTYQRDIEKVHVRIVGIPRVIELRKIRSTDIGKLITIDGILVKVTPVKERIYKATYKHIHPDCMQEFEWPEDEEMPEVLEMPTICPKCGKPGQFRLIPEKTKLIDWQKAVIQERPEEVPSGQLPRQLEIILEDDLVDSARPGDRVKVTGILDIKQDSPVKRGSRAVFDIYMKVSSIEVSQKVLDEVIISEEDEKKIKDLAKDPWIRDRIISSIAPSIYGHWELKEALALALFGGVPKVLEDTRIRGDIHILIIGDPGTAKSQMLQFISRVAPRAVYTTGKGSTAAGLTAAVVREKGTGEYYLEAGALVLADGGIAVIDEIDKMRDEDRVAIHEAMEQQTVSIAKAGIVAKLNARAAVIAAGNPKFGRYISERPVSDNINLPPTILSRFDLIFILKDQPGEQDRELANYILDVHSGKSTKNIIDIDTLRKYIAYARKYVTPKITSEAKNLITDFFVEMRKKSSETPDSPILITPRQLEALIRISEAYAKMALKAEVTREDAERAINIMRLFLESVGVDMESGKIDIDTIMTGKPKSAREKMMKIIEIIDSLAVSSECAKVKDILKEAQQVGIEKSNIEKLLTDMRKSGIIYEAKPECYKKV
Description: Helicase assays were performed essentially as described. Synthetic replication forks were prepared by annealing oligos 233 and 235 [IDT (Coralville), oligo 233 5′(T)40[…]; oligo 235 5′ […](T)40] and then filling in the recessed 3′-end with [α32P]dATP and unlabelled dNTPs using Klenow Fragment. Briefly, reactions ([…]) were performed in 1× helicase assay buffer [20 mM Tris/HCl (pH 7.5), 10 mM MgOAc, 20% (v/v) glycerol, 100 μM EDTA and 5 mM DTT (dithiothreitol)] and contained a final concentration of 1 nM fork substrate, 5 mM ATP, 40 mM creatine phosphate, […] creatine kinase, 33 μg/ml BSA. Reactions containing Mcm2-7 and Mcm467 were supplemented with 200 mM potassium glutamate. Reactions containing SsoMcm were incubated at 65°C, those containing T4 gp41 were incubated for 30 min at 37°C, and all other reactions were incubated at 37°C for 1 h. The products were separated by 10% (w/v) native PAGE, the resulting gels dried and the radioactivity quantified using a Fuji FLA-5100 phosphoimager. […] ATP was separated from ADP by PEI (polyethyleneimine) thin layer chromatography, and the ratio of ATP:ADP was quantified using a Fuji FLA-5100 phosphoimager. […] Protein–ssDNA binding was determined with a double filter-binding assay using an ssDNA probe (oligo 826, 5′[…]) that was 5′-radiolabelled using T4 polynucleotide kinase and [γ32P]ATP [16]. […]

SV40 large TAg (T-antigen), sequence (P03070 whole entry, looked up): as the sequence (P03070 whole entry) above

Compound `O=C(O)c1cn(C2CC2)c2cc(N3CCNCC3)c(F)cc2c1=O` [Ciprofloxacin, ciprofloxacin, reference compound] has an IC50 ([1]; 100 nM complex, read-out: IC50 TAg helicase activity) of 4 mM, an IC50 ([1]; 100 nM hexamer, inhibitor preincubation, […], read-out: IC50 T-antigen) of 4.01 mM and an IC50 [2] of 1.3 mM. For the same compound, the “effect on ATP hydrolysis of Mcm2-7” value [3] was “only modest effects”, the “effect on ssDNA binding of Mcm2-7” value [4] was “only modest effects” and the “effect on ssDNA binding of TAg” value [5] was “only modest effects”. The DNA intercalation [6] was “little or no intercalation”, the “inhibition of DnaB helicase” value [7] was “none of the tested helicases were substantially inhibited” and the “inhibition of SsoMcm helicase” value [8] was “none of the tested helicases were substantially inhibited”.
